“And” between values parts separate entries of the source, which are not always exact repeats. Identical values can stand only once.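 Cells were grown in 96-well plates and exposed to each compound for 48 hours at five concentrations; endpoints were interpolated linearly between bracketing concentrations, or set to the highest concentration if not reached. GI50 is the concentration that inhibits growth by half. TGI: concentration producing complete growth inhibition.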
Assays:
Experiment in all cases: NCI tumour cell line growth inhibition, 48 h
HL-60(TB) leukemia = test system: HL-60(TB) leukemia
OVCAR-3 ovarian = test system: OVCAR-3 ovarian
SK-OV-3 ovarian = test system: SK-OV-3 ovarian
KM12 colon = test system: KM12 colon
A498 renal = test system: A498 renal
SK-MEL-2 melanoma = test system: SK-MEL-2 melanoma
NCI-H522 lung = test system: NCI-H522 lung
SN12C renal = test system: SN12C renal
HOP-92 NSCLC = test system: HOP-92 NSCLC
EKVX NSCLC = test system: EKVX NSCLC

| Structure (SMILES) | GI50 (HL-60(TB) leukemia) | TGI (HL-60(TB) leukemia) | GI50 (OVCAR-3 ovarian) [µM] | TGI (OVCAR-3 ovarian) | GI50 (SK-OV-3 ovarian) | TGI (SK-OV-3 ovarian) | GI50 (KM12 colon) | TGI (KM12 colon) | GI50 (A498 renal) [µM] | TGI (A498 renal) [µM] | GI50 (SK-MEL-2 melanoma) | TGI (SK-MEL-2 melanoma) | GI50 (NCI-H522 lung) | TGI (NCI-H522 lung) | GI50 (SN12C renal) | TGI (SN12C renal) | GI50 (HOP-92 NSCLC) | TGI (HOP-92 NSCLC) | GI50 (EKVX NSCLC) [µM] | TGI (EKVX NSCLC) |
| --- | --- | --- | --- | --- | --- | --- | --- | --- | --- | --- | --- | --- | --- | --- | --- | --- | --- | --- | --- | --- |
| [Cl-].[Gd+3].[O-]/N=C(\c1ccccc1)c1ccccn1.[O-]/N=C(\c1ccccc1)c1ccccn1.[O-]/N=C(\c1ccccc1)c1ccccn1 | 11.7 µM | > 100 µM | 21.3 | 79.5 µM | 48 µM | > 100 µM | 37.3 µM | > 100 µM | > 100 | > 100 | 27.1 µM | 78.5 µM | 40.4 µM | > 100 µM | 66.8 µM | > 100 µM | > 100 µM | > 100 µM | 42.7 | > 100 µM |
| OCCCCC#Cc1ccccc1C#Cc1ccc(C(F)(F)F)cc1 | 17.7 µM | 38.8 µM | 17.8 | 32.6 µM | 18.5 µM | 34 µM | 13.9 µM | 29.8 µM | 15 | 28.6 | 16 µM | 33.9 µM | 16.4 µM | 32 µM | 15.8 µM | 29.6 µM | 18 µM | 34.9 µM | 18.4 | 35.9 µM |
| Cc1nc(-n2nc(-c3ccccc3)cc2-c2ccccc2)sc1C(=O)/C=C/c1ccccc1 | – | > 100 µM | – | > 100 µM | – | > 100 µM | – | > 100 µM | – | > 100 | – | > 100 µM | – | > 100 µM | – | > 100 µM | – | > 100 µM | – | > 100 µM |
| C=C(Cn1c2ccccc2c(=O)c2ccccc21)c1ccc(C(=O)Nc2ccccc2N)cc1 | 0.662 µM | > 26.9 µM | 6.5 | > 100 µM | 5.99 µM | > 100 µM | 2.43 µM | > 100 µM | – | > 27.2 | > 100 µM | > 100 µM | 2.72 µM | > 100 µM | > 100 µM | > 100 µM | 5.87 µM | > 100 µM | > 21.5 | > 100 µM |
| N/C(=N\C(N)=N\c1nc2ccccc2s1)c1cnccn1 | 2.68 µM | 51.5 µM | 2.79 | 7.86 µM | 1.84 µM | 3.83 µM | 3.37 µM | > 100 µM | 1.45 | 3.89 | 1.95 µM | 4.63 µM | 2.16 µM | 6.16 µM | 4.18 µM | > 100 µM | 3.05 µM | 16.1 µM | 4.08 | > 100 µM |
| COc1ccc(OCC(O)CN2CCN(c3ccc(Cl)cc3)CC2)cc1 (stereo not given) | > 100 µM | > 100 µM | > 100 | > 100 µM | > 100 µM | > 100 µM | > 100 µM | > 100 µM | > 100 | > 100 | > 100 µM | > 100 µM | 69.3 µM | > 100 µM | > 100 µM | > 100 µM | 3.99 µM | > 100 µM | 9.82 | > 100 µM |
| CNCc1ccc(-c2[nH]c3cc(F)cc4c3c2CCNC4=O)cc1 | 20.9 µM | 41.3 µM | 19.9 | 47.2 µM | 18.6 µM | 56 µM | 20 µM | 45.3 µM | 21.6 | 53.8 | 20.9 µM | 39.3 µM | 19 µM | 39.4 µM | 16.5 µM | 48 µM | 17.9 µM | > 69.5 µM | 26.1 | > 83.1 µM |
| O=c1cccccc1[O-].O=c1cccccc1[O-].O=c1cccccc1[O-].[Sm+3] | – | > 100 µM | – | 47 µM | – | > 100 µM | – | > 100 µM | 87.5 | > 100 | – | > 100 µM | – | > 100 µM | 26.8 µM | > 100 µM | – | > 100 µM | – | > 100 µM |
| Cc1ccc(S(=O)(=O)N2CCC(C(=O)O)(c3ccccc3)CC2)cc1 | – | > 100 µM | – | > 100 µM | – | > 100 µM | – | > 100 µM | – | > 100 | – | > 100 µM | – | > 100 µM | – | > 100 µM | – | > 100 µM | – | > 100 µM |
| COc1c(O)c2c3c(c1OC)-c1ccccc1CC3N(S(=O)(=O)c1ccc(C)cc1)CC2 (stereo not given) | 1.18 µM | 7.46 µM | 1.18 | 2.68 µM | 1.96 µM | 38.4 µM | 1.76 µM | > 50 µM | 0.372 | 5.54 | 1.47 µM | 3.88 µM | 1.28 µM | 3.55 µM | 2.59 µM | > 50 µM | 1.41 µM | 29 µM | 4.04 | > 50 µM |
| N#CCC1(n2cc(-c3ncnc4[nH]ccc34)cn2)CN(C2CCN(C(=O)c3ccnc(C(F)(F)F)c3F)CC2)C1 | > 100 µM | > 100 µM | > 100 | > 100 µM | > 100 µM | > 100 µM | 36.1 µM | > 100 µM | 29.1 | > 100 | > 100 µM | > 100 µM | > 100 µM | > 100 µM | 69.8 µM | > 100 µM | 20.7 µM | > 100 µM | > 100 | > 100 µM |
| O=NN(CCCl)C(=O)NC1CCCCC1 | 41.5 µM and 41 µM | 69.9 µM and > 80.6 µM and 83.8 µM | 13.5 | 34.5 µM and 142 µM | 43.1 µM and 149 µM | 162 µM and 232 µM | 17.5 µM and 82.1 µM | 47.4 µM and 158 µM and 200 µM | – | 155 | 22.7 µM and 194 µM | 49.4 µM and 159 µM and 272 µM | 12.5 µM and 42.5 µM | 26.1 µM and 75.4 µM and 83.2 µM | 20.9 µM and 92.8 µM | 47.8 µM and 123 µM and 214 µM | 23.6 µM and 42.6 µM | 48.7 µM and 99.1 µM and 74.7 µM | 92.3 | 160 µM and 224 µM |
| CCN1CCN(c2nc(NNC(=O)c3ccccc3)nc(N3CCN(C(c4ccccc4)c4ccccc4)CC3)n2)CC1 | 1.76 µM | 3.99 µM | 3.43 | 13.2 µM | 5.93 µM | 22.1 µM | 3.42 µM | 11.8 µM | 6.3 | 27.1 | 2.4 µM | 5.67 µM | 2.69 µM | 7.65 µM | 2.89 µM | 8.97 µM | 1.39 µM | 3.7 µM | 10.3 | 30 µM |
